Where two headings read alike, the source gives them in different places.
What was measured:
[1] = biological target: T1, full length N-terminally FLAG-tagged PARP1 (Homo sapiens, UniProt P09874); assay: PARP1 probe displacement HTRF assay; details: for Selectivity: PARP1 over PARP2, ratio Kd (PARP2)/Kd (PARP1); for Kd: binned Kd
[2] = biological target: T2, N-terminally FLAG-tagged PARP2 (amino acids 1-583) (Homo sapiens, UniProt Q9UGN5); assay: PARP2 probe displacement HTRF assay; type: binding; details: binned Kd
T2 construct: N-terminally FLAG-tagged PARP2 (amino acids 1-583)
Method: Data analysis was performed identical as for PARP1.

[3] = biological target: T1, full length N-terminally FLAG-tagged PARP1; assay: PARP1 biochemical DELFIA assay (auto-PARylation); parameters: recombinant full length human N-terminally FLAG-tagged PARP1
[4] = read-out: PARP1 HTRF, PARP1 probe displacement HTRF
[5] = binned IC50, PARP1 biochemical DELFIA assay
[6] = read-out: PARP1 HTRF, probe displacement HTRF
[7] = binned IC50, biochemical auto-PARylation assay
[8] = PARP1 HTRF, PARP1 probe displacement HTRF
[9] = PARP1 HTRF, probe displacement HTRF

T1 sequence (P09874 whole entry, the tested form may be a part): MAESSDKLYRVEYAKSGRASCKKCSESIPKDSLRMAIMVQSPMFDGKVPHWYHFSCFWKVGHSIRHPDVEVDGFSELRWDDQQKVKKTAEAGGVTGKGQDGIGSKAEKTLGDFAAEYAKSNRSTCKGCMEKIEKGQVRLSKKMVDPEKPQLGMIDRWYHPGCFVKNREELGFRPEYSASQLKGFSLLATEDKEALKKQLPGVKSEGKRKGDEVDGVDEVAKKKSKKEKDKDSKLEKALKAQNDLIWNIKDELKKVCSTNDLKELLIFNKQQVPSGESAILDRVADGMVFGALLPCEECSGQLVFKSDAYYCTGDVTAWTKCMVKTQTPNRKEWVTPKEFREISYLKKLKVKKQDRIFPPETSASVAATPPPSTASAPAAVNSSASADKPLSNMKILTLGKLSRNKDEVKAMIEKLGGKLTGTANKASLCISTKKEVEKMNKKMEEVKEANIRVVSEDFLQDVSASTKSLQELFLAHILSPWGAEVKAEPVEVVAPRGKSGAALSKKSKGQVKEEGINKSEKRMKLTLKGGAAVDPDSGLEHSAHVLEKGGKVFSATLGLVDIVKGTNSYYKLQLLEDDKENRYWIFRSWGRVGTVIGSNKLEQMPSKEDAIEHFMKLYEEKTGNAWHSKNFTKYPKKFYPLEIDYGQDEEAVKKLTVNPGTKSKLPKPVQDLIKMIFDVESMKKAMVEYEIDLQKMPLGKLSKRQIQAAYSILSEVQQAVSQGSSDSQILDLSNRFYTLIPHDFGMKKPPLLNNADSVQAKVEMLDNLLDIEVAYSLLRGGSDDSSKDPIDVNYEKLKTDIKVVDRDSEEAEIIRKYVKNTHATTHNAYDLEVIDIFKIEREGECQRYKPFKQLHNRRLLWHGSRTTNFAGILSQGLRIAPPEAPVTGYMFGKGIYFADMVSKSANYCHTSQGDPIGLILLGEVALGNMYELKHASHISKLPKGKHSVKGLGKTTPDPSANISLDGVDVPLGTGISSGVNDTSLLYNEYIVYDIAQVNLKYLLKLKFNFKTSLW
T2 sequence (Q9UGN5 whole entry, the tested form may be a part): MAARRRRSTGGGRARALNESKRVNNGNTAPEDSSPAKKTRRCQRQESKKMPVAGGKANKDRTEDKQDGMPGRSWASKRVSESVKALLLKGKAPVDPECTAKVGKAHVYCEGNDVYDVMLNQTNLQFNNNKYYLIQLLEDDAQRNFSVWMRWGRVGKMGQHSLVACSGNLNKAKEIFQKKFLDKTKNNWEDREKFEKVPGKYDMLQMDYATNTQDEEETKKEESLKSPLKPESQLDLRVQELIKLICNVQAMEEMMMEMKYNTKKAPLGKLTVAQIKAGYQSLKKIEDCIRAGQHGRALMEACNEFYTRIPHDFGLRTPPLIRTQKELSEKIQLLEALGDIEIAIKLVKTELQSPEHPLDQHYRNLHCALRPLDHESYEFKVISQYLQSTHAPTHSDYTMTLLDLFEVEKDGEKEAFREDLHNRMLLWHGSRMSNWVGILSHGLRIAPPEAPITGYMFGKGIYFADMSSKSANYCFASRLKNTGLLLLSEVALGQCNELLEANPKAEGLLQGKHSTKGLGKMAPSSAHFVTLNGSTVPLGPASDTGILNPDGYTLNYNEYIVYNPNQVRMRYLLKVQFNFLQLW

| Structure (SMILES) | Kd [1, 4] [µM] | Kd ([2]; PARP2 probe displacement HTRF) [µM] | IC50 [3, 5] [µM] | Kd [1, 6] [µM] | Kd ([2]; probe displacement HTRF) [µM] | IC50 [3, 7] [µM] | Kd [1, 8] [µM] | Kd [1, 9] [µM] | Selectivity ([1]; probe displacement HTRF) |
| --- | --- | --- | --- | --- | --- | --- | --- | --- | --- |
| CNC(=O)c1ccc(N2CCC(N3CCC(c4ccc(OC)c(=O)[nH]4)C3)CC2)c(C(F)(F)F)n1 (single isomer, unassigned) [Compound 152b] | 0.01 to 0.1 | > 10 | 0.01 to 0.1 |  |  |  |  |  | ++ (++ indicates a value of 50 to less than 100) |
| CNC(=O)c1ccc(N2CCC(N3CCCC(c4ccc(CC(F)(F)F)c(=O)[nH]4)C3)CC2)cn1 (single isomer, unassigned) [Compound 169a] | > 10 | > 10 | 1 to 10 |  |  |  |  |  | − (− indicates a value of less than 10) |
| CNC(=O)c1cc(C)c(N2CCC(N3CCC(c4cc5ccccc5c(=O)[nH]4)C3)CC2)c(C)n1 (single isomer, unassigned) [Compound 205b] | 0.01 to 0.1 | 1 to 10 | 0.01 to 0.1 |  |  |  |  |  | + (+ indicates a value of 10 to less than 50) |
| CNC(=O)c1ccc(N2CCC(N3CCC(c4nc5sc(C)c(C)c5c(=O)[nH]4)C3)CC2)cn1 (single isomer, unassigned) [Compound 221b] |  |  |  | < 0.01 | 0.01 to 0.1 | < 0.01 |  |  | ++ (++ indicates a value of 50 to less than 100) |
| N#Cc1ccc(N2CCC(N3CCC(c4cc5cccc(F)c5c(=O)[nH]4)C3)CC2)c(F)c1 (single isomer, unassigned) [Compound 356b] |  |  |  | 0.1 to 1 | 1 to 10 | 0.1 to 1 |  |  | + (+ indicates a value of 10 to less than 50) |
| CNC(=O)c1ccc(N2CCC(N3CCC(c4ccc(C5CC5)c(=O)[nH]4)C3)CC2)cn1 (racemic) [Compound 141rac] | < 0.01 | 1 to 10 | < 0.01 |  |  |  |  |  | +++ (+++ indicate a value of at least 100) |
| CCN1CCCc2c1nc(C13CC(C1)N(C1CCN(c4ccc(C(=O)NC)nc4F)CC1)C3)[nH]c2=O [Compound 384] |  |  |  |  | 0.1 to 1 | < 0.01 |  | < 0.01 | + (+ indicates a value of 10 to less than 50) |
| N#Cc1ccc(N2CCC(N3CCC(c4cc5cccc(F)c5c(=O)[nH]4)C3)CC2)c(Cl)c1 (single isomer, unassigned) [Compound 378b] |  |  |  | < 0.01 | 1 to 10 | < 0.01 |  |  | +++ (+++ indicate a value of at least 100) |
| CCNC(=O)c1ccc(N2CCC(N3CCC(c4ccc(CC)c(=O)[nH]4)C3)CC2)c(F)n1 (racemic) [Compound 264rac] |  |  |  | < 0.01 | 0.1 to 1 | < 0.01 |  |  | +++ (+++ indicate a value of at least 100) |
| CNC(=O)c1ccc(N2CCC(N3CCC(c4ncc(C(F)(F)F)c(=O)[nH]4)C3)CC2)cn1 (single isomer, unassigned) [Compound 56b] | 0.1 to 1 | > 10 | 1 to 10 |  |  |  |  |  | − (− indicates a value of less than 10) |
| CNC(=O)c1ncc(N2CCC(N3CCC(c4cc5cccc(F)c5c(=O)[nH]4)C3)CC2)c(C)n1 (racemic) [Compound 241rac] |  |  |  | < 0.01 | 0.1 to 1 | < 0.01 |  |  | +++ (+++ indicate a value of at least 100) |
| CCc1ccc(C2CCN(C3CCN(c4ccc(C(=O)NC)nc4C)CC3)C2)[nH]c1=O (single isomer, unassigned) [Compound 133b] | 0.01 to 0.1 | > 10 | 0.01 to 0.1 |  |  |  |  |  | +++ (+++ indicate a value of at least 100) |
| N#Cc1nc(C(=O)NC2CC2)ccc1N1CCC(N2CC3(c4nc5ccc(F)cc5c(=O)[nH]4)CC2C3)CC1 [Compound 388] |  |  |  |  | 0.1 to 1 | < 0.01 |  | < 0.01 | +++ (+++ indicate a value of at least 100) |
| CCc1ccc(C2CCCN(C3CCN(c4ccc(C(=O)NC)nc4)CC3)C2)[nH]c1=O (single isomer, unassigned) [Compound 53a, 5-{4-[3-(5-ethyl-6-oxo-1H-pyridin-2-yl)piperidin-1-yl]piperidin-1-yl}-N-methylpyridine-2-carboxamide] |  | 1 to 10 | < 0.01 |  |  |  | < 0.01 |  | +++ (+++ indicate a value of at least 100) |
| CNC(=O)c1ncc(N2CCC(N3CCC(c4cc5cccc(F)c5c(=O)[nH]4)C3)CC2)c(C(F)(F)F)n1 (single isomer, unassigned) [Compound 277b] |  |  |  | 0.01 to 0.1 | > 10 | 0.01 to 0.1 |  |  | ++ (++ indicates a value of 50 to less than 100) |
| CNC(=O)c1cc(C(F)(F)F)c(N2CCC(N3CCC(c4cc5cccc(F)c5c(=O)[nH]4)C3)CC2)cn1 (single isomer, unassigned) [Compound 308a] |  |  |  | 0.1 to 1 | 1 to 10 | 0.1 to 1 |  |  | + (+ indicates a value of 10 to less than 50) |
| CNC(=O)c1ccc(N2CCC(N3CCC(c4cc5c(F)ccc(F)c5c(=O)[nH]4)C3)CC2)c(F)n1 (racemic) [Compound 268rac] |  |  |  | < 0.01 | 0.1 to 1 | < 0.01 |  |  | +++ (+++ indicate a value of at least 100) |

Further lines, with some results ahead:

| Kd [1, 4] [µM] | Kd ([2]; PARP2 probe displacement HTRF) [µM] | IC50 [3, 5] [µM] | Kd [1, 6] [µM] | Kd ([2]; probe displacement HTRF) [µM] | IC50 [3, 7] [µM] | Kd [1, 8] [µM] | Kd [1, 9] [µM] | Structure (SMILES) | Selectivity ([1]; probe displacement HTRF) |
| --- | --- | --- | --- | --- | --- | --- | --- | --- | --- |
| < 0.01 | 0.1 to 1 | < 0.01 |  |  |  |  |  | CCc1ccc(C2CCN(C3CCN(c4ccc(C(=O)NCCF)nc4)CC3)C2)[nH]c1=O (single isomer, unassigned) [Compound 165a] | +++ (+++ indicate a value of at least 100) |
| < 0.01 | 1 to 10 | 0.01 to 0.1 |  |  |  |  |  | CNC(=O)c1ccc(N2CCC(N3CCC(c4nc5c(C)nn(C)c5c(=O)[nH]4)C3)CC2)cn1 (racemic) [Compound 143rac] | +++ (+++ indicate a value of at least 100) |
| 1 to 10 | > 10 | 1 to 10 |  |  |  |  |  | CNC(=O)c1ccc(N2CC(N3CCCC(c4nc5ccccc5c(=O)[nH]4)C3)C2)cn1 (single isomer, unassigned) [Compound 23b] | − (− indicates a value of less than 10) |
|  |  |  | 0.1 to 1 | 1 to 10 | 0.1 to 1 |  |  | CS(=O)(=O)Nc1ccc(N2CCC(N3CCC(c4nc5ccccc5c(=O)[nH]4)C3)CC2)cn1 (single isomer, unassigned) [Compound 291b] | − (− indicates a value of less than 10) |
|  |  |  | 0.01 to 0.1 | 0.1 to 1 | 0.01 to 0.1 |  |  | CNC(=O)c1ccc(N2CCC(N3CCC(c4nc5c(C)scc5c(=O)[nH]4)C3)CC2)cn1 (single isomer, unassigned) [Compound 232a] | − (− indicates a value of less than 10) |
|  | 0.1 to 1 | < 0.01 |  |  |  | < 0.01 |  | CNC(=O)c1ccc(N2CCC(N3CCC(c4cc5ccc(F)cc5c(=O)[nH]4)C3)CC2)cn1 (single isomer, unassigned) [Compound 154a, 5-(4-(3-(7-fluoro-1-oxo-1,2-dihydroisoquinolin-3-yl)pyrrolidin-1-yl)piperidin-1-yl)-N-methylpicolinamide] | +++ (+++ indicate a value of at least 100) |
| < 0.01 | 1 to 10 | < 0.01 |  |  |  |  |  | CNC(=O)c1ccc(N2CC(N3CCCC(c4nc5ccccc5c(=O)[nH]4)CC3)C2)cn1 (single isomer, unassigned) [Compound 145a] | +++ (+++ indicate a value of at least 100) |
| < 0.01 | > 10 | < 0.01 |  |  |  |  |  | CNC(=O)c1ccc(N2CCC(N3CCC(c4cc5cnccc5c(=O)[nH]4)C3)CC2)cn1 (racemic) [Compound 204rac] | +++ (+++ indicate a value of at least 100) |
| 0.1 to 1 | > 10 | 0.1 to 1 |  |  |  |  |  | O=c1[nH]c(C2CCCN(C3CCN(c4ccc(F)cc4F)CC3)C2)nc2ccccc12 (single isomer, unassigned) [Compound 113b] | + (+ indicates a value of 10 to less than 50) |
|  |  |  | 0.01 to 0.1 | 1 to 10 | < 0.01 |  |  | CNC(=O)c1ccc(N2CCC(N3CCC(c4cc5cc(OC)ccc5c(=O)[nH]4)C3)CC2)cn1 (racemic) [Compound 334rac] | ++ (++ indicates a value of 50 to less than 100) |
| < 0.01 | 1 to 10 | < 0.01 |  |  |  |  |  | CNC(=O)c1ccc(N2CC(N3CCC(c4nc5ccccc5c(=O)[nH]4)C3)C2)cn1 (single isomer, unassigned) [Compound 61b] | +++ (+++ indicate a value of at least 100) |
| 0.01 to 0.1 | > 10 | < 0.01 |  |  |  |  |  | CCNC(=O)c1ccc(N2CCC(N3CCCC(c4nc5ccccc5c(=O)[nH]4)C3)CC2)cn1 (single isomer, unassigned) [Compound 122a] | +++ (+++ indicate a value of at least 100) |
| 0.01 to 0.1 | 0.1 to 1 | 0.01 to 0.1 |  |  |  |  |  | O=C(NCCF)c1ccc(N2CCC(N3CCC(c4nc5ccccc5c(=O)[nH]4)C3)CC2)cn1 (single isomer, unassigned) [Compound 117a] | + (+ indicates a value of 10 to less than 50) |
|  | 1 to 10 | 0.01 to 0.1 |  |  |  | 0.01 to 0.1 |  | CNC(=O)c1ccc(N2CCC(N3CC(c4nc5ccccc5c(=O)[nH]4)C3)CC2)cn1 [Compound 27] | + (+ indicates a value of 10 to less than 50) |
